Assay results taken from the supplement of paper PMC3937590.

How the values were obtained:
Assay in all cases: -log10 GI50 (growth inhibition 50%) (-log10(M)); higher = more potent growth inhibition
184A1 = system: 184A1
Procedure, shortened: (§1)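 The reported figure is the negative logarithm of GI50, defined as the molar concentration that produces the set level of growth inhibition. The logarithm is base 10. It comes from a Gompertz curve fitted by nonlinear least squares to 72-hour luminescence data from breast cancer cell lines given nine doses in 1:5 serial dilution, in triplicate, with a time-zero plate as reference. A < qualifier marks values equal to the top dose.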

184B5 = system: 184B5
Procedure, shortened: as §1

600MPE = system: 600MPE
Procedure, shortened: as §1

AU565 = system: AU565
Procedure, shortened: as §1

BT20 = system: BT20
Procedure, shortened: as §1

BT474 = system: BT474
Procedure, shortened: as §1

BT483 = system: BT483
Procedure, shortened: as §1

BT549 = system: BT549
Procedure, shortened: as §1

CAMA1 = system: CAMA1
Procedure, shortened: as §1

HCC1143 = system: HCC1143
Procedure, shortened: as §1

HCC1187 = system: HCC1187
Procedure, shortened: as §1

HCC1395 = system: HCC1395
Procedure, shortened: as §1

HCC1419 = system: HCC1419
Procedure, shortened: as §1

HCC1428 = system: HCC1428
Procedure, shortened: as §1

HCC1569 = system: HCC1569
Procedure, shortened: as §1

HCC1806 = system: HCC1806
Procedure, shortened: as §1

HCC1937 = system: HCC1937
Procedure, shortened: as §1

HCC1954 = system: HCC1954
Procedure, shortened: as §1

HCC2185 = system: HCC2185
Procedure, shortened: as §1

HCC3153 = system: HCC3153
Procedure, shortened: as §1

HCC38 = system: HCC38
Procedure, shortened: as §1

HCC70 = system: HCC70
Procedure, shortened: as §1

HS578T = system: HS578T
Procedure, shortened: as §1

LY2 = system: LY2
Procedure, shortened: as §1

MCF10A = system: MCF10A
Procedure, shortened: as §1

MCF10F = system: MCF10F
Procedure, shortened: as §1

MCF12A = system: MCF12A
Procedure, shortened: as §1

MCF7 = system: MCF7
Procedure, shortened: as §1

MDAMB134VI = system: MDAMB134VI
Procedure, shortened: as §1

MDAMB157 = system: MDAMB157
Procedure, shortened: as §1

MDAMB175VII = system: MDAMB175VII
Procedure, shortened: as §1

MDAMB231 = system: MDAMB231
Procedure, shortened: as §1

MDAMB361 = system: MDAMB361
Procedure, shortened: as §1

MDAMB415 = system: MDAMB415
Procedure, shortened: as §1

MDAMB453 = system: MDAMB453
Procedure, shortened: as §1

MX1 = system: MX1
Procedure, shortened: as §1

SKBR3 = system: SKBR3
Procedure, shortened: as §1

SUM1315MO2 = system: SUM1315MO2
Procedure, shortened: as §1

SUM149PT = system: SUM149PT
Procedure, shortened: as §1

SUM159PT = system: SUM159PT
Procedure, shortened: as §1

SUM185PE = system: SUM185PE
Procedure, shortened: as §1

SUM225CWN = system: SUM225CWN
Procedure, shortened: as §1

SUM229PE = system: SUM229PE
Procedure, shortened: as §1

SUM52PE = system: SUM52PE
Procedure, shortened: as §1

T47D_KBluc = system: T47D_KBluc
Procedure, shortened: as §1

T47D = system: T47D
Procedure, shortened: as §1

UACC812 = system: UACC812
Procedure, shortened: as §1

ZR751 = system: ZR751
Procedure, shortened: as §1

ZR75B = system: ZR75B
Procedure, shortened: as §1

HCC202 = system: HCC202
Procedure, shortened: as §1

SMILES: N#Cc1c(-c2ccccc2)cc(-c2cc(Br)ccc2O)[nH]c1=O [TCS PIM-11]
- -log10 GI50 (184A1): 5.16
- -log10 GI50 (184B5): 5.61
- -log10 GI50 (600MPE): < 3.88
- -log10 GI50 (AU565): < 4.18
- -log10 GI50 (BT20): < 3.88
- -log10 GI50 (BT474): < 3.88
- -log10 GI50 (BT483): < 3.88
- -log10 GI50 (BT549): < 3.88
- -log10 GI50 (CAMA1): < 3.88
- -log10 GI50 (HCC1143): < 3.88
- -log10 GI50 (HCC1187): 4.42
- -log10 GI50 (HCC1395): < 3.88
- -log10 GI50 (HCC1419): 4.31
- -log10 GI50 (HCC1428): 4.09
- -log10 GI50 (HCC1569): 4.33
- -log10 GI50 (HCC1806): < 3.88
- -log10 GI50 (HCC1937): < 3.88
- -log10 GI50 (HCC1954): 4.52
- -log10 GI50 (HCC2185): 4.33
- -log10 GI50 (HCC3153): < 3.88
- -log10 GI50 (HCC38): 3.95
- -log10 GI50 (HCC70): 4.47
- -log10 GI50 (HS578T): < 4.18
- -log10 GI50 (LY2): < 3.88
- -log10 GI50 (MCF10A): 4.57
- -log10 GI50 (MCF10F): < 3.88
- -log10 GI50 (MCF12A): 4.36
- -log10 GI50 (MCF7): < 3.88
- -log10 GI50 (MDAMB134VI): < 3.88
- -log10 GI50 (MDAMB157): < 3.88
- -log10 GI50 (MDAMB175VII): < 3.88
- -log10 GI50 (MDAMB231): < 3.88
- -log10 GI50 (MDAMB361): < 3.88
- -log10 GI50 (MDAMB415): < 3.88
- -log10 GI50 (MDAMB453): < 3.88
- -log10 GI50 (MX1): 4.73
- -log10 GI50 (SKBR3): < 3.88
- -log10 GI50 (SUM1315MO2): 4.75
- -log10 GI50 (SUM149PT): 4.49
- -log10 GI50 (SUM159PT): 4.46
- -log10 GI50 (SUM185PE): 4.67
- -log10 GI50 (SUM225CWN): 4.53
- -log10 GI50 (SUM229PE): 4.57
- -log10 GI50 (SUM52PE): 4.72
- -log10 GI50 (T47D_KBluc): < 3.88
- -log10 GI50 (T47D): < 4.18
- -log10 GI50 (UACC812): < 3.88
- -log10 GI50 (ZR751): 4
- -log10 GI50 (ZR75B): < 3.88

SMILES: CC(/C=C/C(=O)NO)=C\[C@@H](C)C(=O)c1ccc(N(C)C)cc1 [Trichostatin A]
- -log10 GI50 (184A1): 4.73
- -log10 GI50 (184B5): 4.34
- -log10 GI50 (600MPE): 5.19
- -log10 GI50 (AU565): 5.44
- -log10 GI50 (BT20): 4.68
- -log10 GI50 (BT474): 5.01
- -log10 GI50 (BT483): 5
- -log10 GI50 (BT549): 5.13
- -log10 GI50 (CAMA1): 5.57
- -log10 GI50 (HCC1143): 4.77
- -log10 GI50 (HCC1187): 5.32
- -log10 GI50 (HCC1395): 4.5
- -log10 GI50 (HCC1419): 4.9
- -log10 GI50 (HCC1428): 5.73
- -log10 GI50 (HCC1569): 5.06
- -log10 GI50 (HCC1806): 4.97
- -log10 GI50 (HCC1937): 4.82
- -log10 GI50 (HCC1954): 4.96
- -log10 GI50 (HCC202): 6.4
- -log10 GI50 (HCC2185): 4.79
- -log10 GI50 (HCC3153): 4.62
- -log10 GI50 (HCC38): 5.22
- -log10 GI50 (HCC70): 4.84
- -log10 GI50 (HS578T): 4.77
- -log10 GI50 (LY2): 4.99
- -log10 GI50 (MCF10A): 4.82
- -log10 GI50 (MCF10F): 4.22
- -log10 GI50 (MCF12A): 4.71
- -log10 GI50 (MCF7): 5.18
- -log10 GI50 (MDAMB134VI): 5.2
- -log10 GI50 (MDAMB157): 4.68
- -log10 GI50 (MDAMB175VII): 5.3
- -log10 GI50 (MDAMB231): 5.26
- -log10 GI50 (MDAMB361): 5.09
- -log10 GI50 (MDAMB415): 4.73
- -log10 GI50 (MDAMB453): 5.22
- -log10 GI50 (MX1): 4.79
- -log10 GI50 (SKBR3): 5.21
- -log10 GI50 (SUM1315MO2): 4.31
- -log10 GI50 (SUM149PT): 5.14
- -log10 GI50 (SUM159PT): 5.23
- -log10 GI50 (SUM185PE): 4.76
- -log10 GI50 (SUM225CWN): 4.86
- -log10 GI50 (SUM229PE): 4.83
- -log10 GI50 (SUM52PE): 5.58
- -log10 GI50 (T47D_KBluc): 5.4
- -log10 GI50 (T47D): 5.46
- -log10 GI50 (UACC812): 5.05
- -log10 GI50 (ZR751): 4.74
- -log10 GI50 (ZR75B): 5.3

SMILES: CCCC(CCC)C(=O)O [Valproic acid]
- -log10 GI50 (184A1): 3
- -log10 GI50 (184B5): 3.07
- -log10 GI50 (600MPE): 2.52
- -log10 GI50 (AU565): 2.85
- -log10 GI50 (BT20): 2.44
- -log10 GI50 (BT474): 3.03
- -log10 GI50 (BT483): 3.01
- -log10 GI50 (BT549): 2.57
- -log10 GI50 (CAMA1): 2.79
- -log10 GI50 (HCC1143): 2.66
- -log10 GI50 (HCC1187): 2.78
- -log10 GI50 (HCC1395): 2.47
- -log10 GI50 (HCC1419): 2.93
- -log10 GI50 (HCC1428): 3.13
- -log10 GI50 (HCC1569): 2.77
- -log10 GI50 (HCC1806): 2.58
- -log10 GI50 (HCC1937): 2.56
- -log10 GI50 (HCC1954): 2.52
- -log10 GI50 (HCC2185): 2.88
- -log10 GI50 (HCC3153): 2.55
- -log10 GI50 (HCC38): 3.05
- -log10 GI50 (HCC70): 2.99
- -log10 GI50 (HS578T): 2.32
- -log10 GI50 (LY2): 2.96
- -log10 GI50 (MCF10A): 2.97
- -log10 GI50 (MCF10F): 2.42
- -log10 GI50 (MCF12A): 2.74
- -log10 GI50 (MCF7): 2.64
- -log10 GI50 (MDAMB134VI): 3.12
- -log10 GI50 (MDAMB157): 2.68
- -log10 GI50 (MDAMB175VII): 2.96
- -log10 GI50 (MDAMB231): 2.16
- -log10 GI50 (MDAMB361): 2.82
- -log10 GI50 (MDAMB415): 3.06
- -log10 GI50 (MDAMB453): 3.15
- -log10 GI50 (MX1): 3.45
- -log10 GI50 (SKBR3): 3.04
- -log10 GI50 (SUM1315MO2): 2.62
- -log10 GI50 (SUM149PT): 2.86
- -log10 GI50 (SUM159PT): 2.91
- -log10 GI50 (SUM185PE): 2.84
- -log10 GI50 (SUM225CWN): 2.76
- -log10 GI50 (SUM229PE): 2.65
- -log10 GI50 (SUM52PE): 2.91
- -log10 GI50 (T47D_KBluc): 2.76
- -log10 GI50 (T47D): 2.53
- -log10 GI50 (UACC812): 2.59
- -log10 GI50 (ZR751): 2.78
- -log10 GI50 (ZR75B): 2.71
